Measured values published in US20060069132A1, “Azolecarboxamide herbicides” (priority 2004, published 2006).

Legend:
rice [1] = experiment: Test B flooded paddy test; format: in vivo, Oryza sativa; settings: 1000 g ai/ha, visual rating, scale 0 to 100 (0 no effect, 100 complete control), 13 to 15 days
How it was run: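 Visual ratings, 0 (no effect) to 100 (complete control), made versus controls after 13–15 d greenhouse. Paddy plants treated at 2-leaf stage; postemergence plants at 1- to 4-leaf stage, 2–18 cm tall.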

ducksalad = experiment: Test B flooded paddy test; format: in vivo, Heteranthera limosa; settings: 1000 g ai/ha, visual rating, scale 0 to 100 (0 no effect, 100 complete control), 13 to 15 days
How it was run: (§1)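 Formulated test chemicals went onto postemergence plants measuring 2 to 18 cm, at one to four leaves. For the paddy assay, species had reached two leaves. Scoring took place 13–15 days later by eye, relative to untreated plants, using 0 for no effect up to 100 for full control.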

wild oat = experiment: Test B postemergence herbicide test; format: in vivo, Avena fatua; settings: postemergence, visual rating, scale 0 (no effect) to 100 (complete control)
How it was run: (§2)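 Treated at 2-leaf (paddy) or 1–4-leaf, 2–18 cm (postemergence); greenhouse 13–15 d; visual score vs control, 0 none to 100 complete control; dash = not tested.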

large crabgrass [2] = experiment: Test B pre-/postemergence herbicide test; format: in vivo, Digitaria sanguinalis; settings: for Crabgrass, Large plant response rating: postemergence, visual rating, scale 0 (no effect) to 100 (complete control)
How it was run: (§3)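 Seeds were planted and treated preemergence with compounds formulated in a non-phytotoxic solvent mixture containing surfactant, while plants at the 1- to 4-leaf stage (2 to 18 cm) received postemergence sprays. Flooded paddy plants were grown to the 2-leaf stage. After 13 to 15 days in a greenhouse, injury was visually rated 0–100 against untreated controls.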

Surinam grass = experiment: Test B pre-/postemergence herbicide test; format: in vivo, Urochloa decumbens; settings: for Surinam Grass plant response rating: postemergence, visual rating, scale 0 (no effect) to 100 (complete control)
How it was run: as §3

redroot pigweed = experiment: Test A pre-/postemergence herbicide test; format: in vivo, Amaranthus retroflexus
How it was run: (§4)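 Both application timings were run together: directed soil spray over freshly planted seeds in sandy loam, and runoff spray onto 2–10 cm seedlings. Evaluation after ~10 days in greenhouse used a 0–100 visual scale versus untreated controls.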

wheat = experiment: Test B postemergence herbicide test; format: in vivo, Triticum aestivum; set-up: key to Wheat plant response rating: 0 = no effect, 100 = complete control; settings: postemergence, visual rating, scale 0 (no effect) to 100 (complete control)
How it was run: as §2

giant foxtail [3] = experiment: Test B pre-/postemergence herbicide test; format: in vivo, Setaria faberi; settings: for Foxtail, Giant plant response rating: postemergence, visual rating, scale 0 (no effect) to 100 (complete control)
How it was run: as §3

cocklebur = experiment: Test B pre-/postemergence herbicide test; format: in vivo, Xanthium strumarium; settings: for Cocklebur plant response rating: postemergence, visual rating, scale 0 (no effect) to 100 (complete control)
How it was run: (§5)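 Plants compared with untreated controls 13–15 days post-treatment and given a visual 0–100 injury score. Applications: preemergence to seeds; postemergence at 1- to 4-leaf (2–18 cm); paddy species flooded, 2-leaf stage. Vehicle non-phytotoxic, surfactant included.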

morningglory [4] = experiment: Test B pre-/postemergence herbicide test; format: in vivo, Ipomoea coccinea; settings: for Morningglory plant response rating: postemergence, visual rating, scale 0 (no effect) to 100 (complete control)
How it was run: as §5

barnyardgrass [5] = experiment: Test B pre-/postemergence herbicide test; format: in vivo, Echinochloa crus-galli; settings: for Barnyardgrass plant response rating: postemergence, visual rating, scale 0 (no effect) to 100 (complete control)
How it was run: as §5

velvetleaf [6] = experiment: Test A pre-/postemergence herbicide test; format: in vivo, Abutilon theophrasti
How it was run: as §4

blackgrass = experiment: Test B postemergence herbicide test; format: in vivo, Alopecurus myosuroides; settings: postemergence, visual rating, scale 0 (no effect) to 100 (complete control)
How it was run: as §1

corn = experiment: Test B pre-/postemergence herbicide test; format: in vivo, Zea mays; settings: for Corn plant response rating: postemergence, visual rating, scale 0 (no effect) to 100 (complete control)
How it was run: as §3

giant foxtail [7] = experiment: Test A pre-/postemergence herbicide test; format: in vivo, Setaria faberi
How it was run: as §4

lambsquarters = experiment: Test B pre-/postemergence herbicide test; format: in vivo, Chenopodium album; settings: for Lambsquarters plant response rating: postemergence, visual rating, scale 0 (no effect) to 100 (complete control)
How it was run: as §3

pigweed = experiment: Test B pre-/postemergence herbicide test; format: in vivo, Amaranthus retroflexus; settings: for Pigweed plant response rating: postemergence, visual rating, scale 0 (no effect) to 100 (complete control)
How it was run: as §3

barnyardgrass [8] = experiment: Test A pre-/postemergence herbicide test; format: in vivo, Echinochloa crus-galli
How it was run: as §4

large crabgrass [9] = experiment: Test A pre-/postemergence herbicide test; format: in vivo, Digitaria sanguinalis
How it was run: as §4

velvetleaf [10] = experiment: Test B pre-/postemergence herbicide test; format: in vivo, Abutilon theophrasti; settings: for Velvetleaf plant response rating: postemergence, visual rating, scale 0 (no effect) to 100 (complete control)
How it was run: as §3

[11] = system: small flower umbrella sedge; experiment: Test B flooded paddy test; format: in vivo, Cyperus difformis; settings: 1000 g ai/ha, visual rating, scale 0 to 100 (0 no effect, 100 complete control), 13 to 15 days
How it was run: as §1

rice [12] = experiment: Test B pre-/postemergence herbicide test; format: in vivo, Oryza sativa; settings: preemergence
How it was run: as §3

barnyardgrass [13] = experiment: Test B flooded paddy test; format: in vivo, Echinochloa crus-galli; settings: 1000 g ai/ha, visual rating, scale 0 to 100 (0 no effect, 100 complete control), 13 to 15 days
How it was run: as §1

morningglory [14] = experiment: Test A pre-/postemergence herbicide test; format: in vivo, Ipomoea spp.
How it was run: as §4

[15] = 125 g ai/ha, 0 = no effect, 100 = complete control, preemergence
[16] = 500 g ai/ha, visual rating 0-100, 0 no effect, 100 complete control, preemergence
[17] = Postemergence, 500 g ai/ha, 0 to 100 scale, 0 no effect, 100 complete control
[18] = Postemergence, 2000 g ai/ha, 0 to 100 scale, 0 no effect, 100 complete control
[19] = Preemergence, 2000 g ai/ha, visual rating, 0 to 100 scale (0 no effect, 100 complete control)
[20] = preemergence, 500 g ai/ha, visual injury, 0 to 100 scale (0 no effect, 100 complete control)

COC(=O)c1cccc(NC(=O)c2sc(C(C)(C)C)nc2C)c1 [Compound 197]
0: Rice plant response rating (rice [1]) | Ducksalad plant response rating (ducksalad) | Crabgrass, Large plant response rating (0 to 100 scale) (large crabgrass [2]; [15]) | Plant response rating, Crabgrass, Large (large crabgrass [2]; [16]) | Crabgrass, Large plant response rating (large crabgrass [2]; 125 g ai/ha) | Crabgrass, Large plant response rating (large crabgrass [2]; 500 g ai/ha) | Surinam Grass plant response rating (0 to 100 scale) (Surinam grass; [15]) | Pigweed plant response rating (redroot pigweed; [17]) | Pigweed plant response rating (redroot pigweed; [19]) | Pigweed plant response rating (redroot pigweed; [20]) | Wheat plant response rating (wheat; 125 g ai/ha) | Foxtail, Giant plant response rating (0 to 100 scale) (giant foxtail [3]; [15]) | Plant response rating, Foxtail, Giant (giant foxtail [3]; [16]) | Foxtail, Giant plant response rating (giant foxtail [3]; 125 g ai/ha) | Foxtail, Giant plant response rating (giant foxtail [3]; 500 g ai/ha) | Cocklebur plant response rating (0 to 100 scale) (cocklebur; [15]) | Plant response rating, Cocklebur (cocklebur; [16]) | Cocklebur plant response rating (cocklebur; 125 g ai/ha) | Morningglory plant response rating (0 to 100 scale) (morningglory [4]; [15]) | Plant response rating, Morningglory (morningglory [4]; [16]) | Morningglory plant response rating (morningglory [4]; 125 g ai/ha) | Morningglory plant response rating (morningglory [4]; 500 g ai/ha) | Barnyardgrass plant response rating (0 to 100 scale) (barnyardgrass [5]; [15]) | Barnyardgrass plant response rating (barnyardgrass [5]; 125 g ai/ha) | Velvetleaf plant response rating (velvetleaf [6]; [20]) | Blackgrass plant response rating (blackgrass; 125 g ai/ha) | Blackgrass plant response rating (blackgrass; 500 g ai/ha) | Corn plant response rating (0 to 100 scale) (corn; [15]) | Plant response rating, Corn (corn; [16]) | Foxtail, Giant plant response rating (giant foxtail [7]; [17]) | Foxtail, Giant plant response rating (giant foxtail [7]; [19]) | Foxtail, Giant plant response rating (giant foxtail [7]; [20]) | Lambsquarters plant response rating (0 to 100 scale) (lambsquarters; [15]) | Plant response rating, Lambsquarters (lambsquarters; [16]) | Lambsquarters plant response rating (lambsquarters; 125 g ai/ha) | Lambsquarters plant response rating (lambsquarters; 500 g ai/ha) | Pigweed plant response rating (0 to 100 scale) (pigweed; [15]) | Plant response rating, Pigweed (pigweed; [16]) | Pigweed plant response rating (pigweed; 125 g ai/ha) | Plant response rating, Barnyardgrass (barnyardgrass [8]; [18]) | Barnyardgrass plant response rating (barnyardgrass [8]; [19]) | Barnyardgrass plant response rating (barnyardgrass [8]; [20]) | Crabgrass, Large plant response rating (large crabgrass [9]; [19]) | Crabgrass, Large plant response rating (large crabgrass [9]; [20]) | Velvetleaf plant response rating (0 to 100 scale) (velvetleaf [10]; [15]) | Plant response rating, Velvetleaf (velvetleaf [10]; [16]) | Velvetleaf plant response rating (velvetleaf [10]; 125 g ai/ha) | Sedge, Umbrella plant response rating [11] | Rice plant response rating (0 to 100 scale) (rice [12]; 125 g ai/ha, 0 = no effect, 100 = complete control) | Plant response rating, Rice (rice [12]; 500 g ai/ha, visual rating 0-100, 0 no effect, 100 complete control) | Barnyardgrass plant response rating (barnyardgrass [13]) | Morningglory plant response rating (morningglory [14]; [17]) | Plant response rating, Morningglory (morningglory [14]; [18]) | Morningglory plant response rating (morningglory [14]; [20])
30: Oat, Wild plant response rating (wild oat; 500 g ai/ha)
10: Oat, Wild plant response rating (wild oat; 125 g ai/ha) | Surinam Grass plant response rating (Surinam grass; 125 g ai/ha) | Wheat plant response rating (wheat; 500 g ai/ha) | Cocklebur plant response rating (cocklebur; 500 g ai/ha) | Plant response rating, Barnyardgrass (barnyardgrass [5]; [16]) | Barnyardgrass plant response rating (barnyardgrass [5]; 500 g ai/ha) | Velvetleaf plant response rating (velvetleaf [6]; [19]) | Corn plant response rating (corn; 125 g ai/ha) | Pigweed plant response rating (pigweed; 500 g ai/ha) | Barnyardgrass plant response rating (barnyardgrass [8]; [17]) | Plant response rating, Crabgrass, Large (large crabgrass [9]; [18])
20: Plant response rating, Surinam Grass (Surinam grass; [16]) | Surinam Grass plant response rating (Surinam grass; 500 g ai/ha) | Corn plant response rating (corn; 500 g ai/ha) | Velvetleaf plant response rating (velvetleaf [10]; 500 g ai/ha)
5: Plant response rating, Pigweed (redroot pigweed; [18]) | Velvetleaf plant response rating (velvetleaf [6]; [17]) | Plant response rating, Velvetleaf (velvetleaf [6]; [18]) | Plant response rating, Foxtail, Giant (giant foxtail [7]; [18]) | Crabgrass, Large plant response rating (large crabgrass [9]; [17]) | Morningglory plant response rating (morningglory [14]; [19])
